Legend:
[1] = test system: 13 human tumour xenografts and 10 human tumour cell lines; conditions: propidium iodide assay
[2] = test system: over 50 human tumour cell lines; conditions: 48-h sulphurhodamine B-assay
Experimental: First in vitro tests were carried out at the National Cancer Institute (Bethesda, Md., USA).

[3] = mean over 13 human tumour xenografts and 10 human tumour cell lines
[4] = mean over more than 50 human tumour cell lines

## O.[Cl-].[Cl-].[Cl][Ce+2].c1cnc2c(c1)ccc1cccnc12.c1cnc2c(c1)ccc1cccnc12 [KP 776, trans-[aquachlorobis(1,10-phenantrolin)cerium(III)]-dichloride]
[1]; [3]
  Mean IC50: 1.20 µg/mL
  Mean IC90: 7.27 µg/mL
[1]; result in words
  tumour type with strongest effectiveness: the strongest effectiveness was found on a melanoma (xenograft)
[1]; read-out: Mean IC50, mean over 13 human tumour xenografts and 10 human tumour cell lines
  IC50: 1.92 µM
[1]; read-out: Mean IC90, mean over 13 human tumour xenografts and 10 human tumour cell lines
  IC90: 11.6 µM
[2]; [4]
  Mean Gl50: 0.61 µg/mL
  Mean LC50: 39.4 µg/mL
[2]; result in words
  activity on single ovarian, kidney cell and parvicellular and non-parvicellular bronchial carcinoma cell lines: Above average activities
  selectivity among tumour cell line types: a certain selectivity for malignant melanoma was evident
[2]; read-out: Mean Gl50, mean over more than 50 human tumour cell lines
  IC50: 0.98 µM
[2]; read-out: Mean LC50, mean over more than 50 human tumour cell lines
  CC50: 63.1 µM

Source: patent publication US6921768B2, “Cytostatic cerium compounds” (Faustus Forschungs Cie. Translational Cancer Research GmbH, priority 2001, dated 2005)
